Where a SMILES comes first, the peptide text is derived from it. Bridges are numbered along the chain shown (N, C = ends).

The nature of the data set: Determination of the protein binding (90% serum, 30 kDa filter, HPLC). In kind it is in vitro ADME. To be noted: serum. On the procedure:
Protein binding assays were performed as follows. The purified peptides were mixed with 90% serum and centrifuged through a 30 kDa filter. The ultra-filtrate and the non filtrated serum samples were quantified by HPLC measurements and the protein binding was subsequently calculated.

`CC(C)[C@@H]1NC(=O)CNC(=O)[C@H](CCCNC(=N)N)NC(=O)[C@H](CCCNC(=N)N)NC(=O)[C@H](Cc2ccc(O)cc2)NC(=O)[C@H](C(C)C)NC(=O)[C@@H]2CSSC[C@H](NC(=O)[C@H](C(C)C)NC(=O)[C@H](CCCNC(=N)N)NC1=O)C(=O)N[C@@H](Cc1c[nH]cn1)C(=O)N[C@@H](CCCNC(=N)N)C(=O)N[C@@H](CCCNC(=N)N)C(=O)N[C@H](C(=O)N[C@@H](CC(N)=O)C(=O)O)CSSC[C@H](NC(=O)[C@H](Cc1ccccc1)NC(=O)CN)C(=O)N[C@@H](Cc1c[nH]c3ccccc13)C(=O)N[C@@H](CC(N)=O)C(=O)N[C@@H](C(C)C)C(=O)N2` [compound 234] (H-GFCWNVCVYRRGVRVCHRRCN-OH; disulfide 3-20, 7-16 (inferred); N-terminus and C-terminus assumed): the fraction unbound is 0.14. Under `CC(C)[C@@H]1NC(=O)CNC(=O)[C@H](CC(N)=O)NC(=O)[C@H](CCCNC(=N)N)NC(=O)[C@H](Cc2ccc(O)cc2)NC(=O)[C@H](C(C)C)NC(=O)[C@@H]2CSSC[C@H](NC(=O)[C@H](Cc3ccccc3)NC(=O)[C@H](CCCNC(=N)N)NC1=O)C(=O)N[C@@H](Cc1c[nH]cn1)C(=O)N[C@@H](CCCNC(=N)N)C(=O)N[C@@H](CCCNC(=N)N)C(=O)N[C@H](C(=O)N[C@@H](CC(N)=O)C(=O)O)CSSC[C@H](NC(=O)[C@H](Cc1ccccc1)NC(=O)CN)C(=O)N[C@@H](Cc1c[nH]c3ccccc13)C(=O)N[C@@H](CC(N)=O)C(=O)N[C@@H](C(C)C)C(=O)N2` [compound 245] (H-GFCWNVCVYRNGVRFCHRRCN-OH; disulfide 3-20, 7-16 (inferred); N-terminus and C-terminus assumed) stands 0.15. Turning to `CC(C)[C@@H]1NC(=O)CNC(=O)[C@H](CC(N)=O)NC(=O)[C@H](CCCNC(=N)N)NC(=O)[C@H](Cc2ccc(O)cc2)NC(=O)[C@H](C(C)C)NC(=O)[C@@H]2CSSC[C@H](NC(=O)[C@H](C(C)C)NC(=O)[C@H](CCCNC(=N)N)NC1=O)C(=O)N[C@@H](Cc1c[nH]cn1)C(=O)N[C@@H](CCCNC(=N)N)C(=O)N[C@@H](CCCNC(=N)N)C(=O)N[C@H](C(=O)N[C@@H](CC(N)=O)C(=O)O)CSSC[C@H](NC(=O)[C@H](Cc1ccccc1)NC(=O)CN)C(=O)N[C@@H](Cc1ccc(O)cc1)C(=O)N[C@@H](CCCNC(=N)N)C(=O)N[C@@H](C(C)C)C(=O)N2` [compound 210] (H-GFCYRVCVYRNGVRVCHRRCN-OH; disulfide 3-20, 7-16 (inferred); N-terminus and C-terminus assumed), the fraction unbound is 0.11. The same measure for `CC(C)[C@@H]1NC(=O)CNC(=O)[C@H](CC(N)=O)NC(=O)[C@H](CCCNC(=N)N)NC(=O)[C@H](CCCNC(=N)N)NC(=O)[C@H](C)NC(=O)[C@@H]2CSSC[C@H](NC(=O)[C@H](C(C)C)NC(=O)[C@H](CCCNC(=N)N)NC1=O)C(=O)N[C@@H](Cc1ccc(O)cc1)C(=O)N[C@@H](CCCNC(=N)N)C(=O)N[C@@H](CCCNC(=N)N)C(=O)N[C@H](C(=O)N[C@@H](CC(N)=O)C(=O)O)CSSC[C@H](NC(=O)[C@H](Cc1ccccc1)NC(=O)CN)C(=O)N[C@@H](Cc1c[nH]c3ccccc13)C(=O)N[C@@H](Cc1c[nH]cn1)C(=O)N[C@@H](C(C)C)C(=O)N2` [compound 218] (H-GFCWHVCARRNGVRVCYRRCN-OH; disulfide 3-20, 7-16 (inferred); N-terminus and C-terminus assumed): 0.01; for `CC(C)[C@@H]1NC(=O)CNC(=O)[C@H](CCC(N)=O)NC(=O)[C@H](CCCNC(=N)N)NC(=O)[C@H](Cc2ccc(O)cc2)NC(=O)[C@H](C(C)C)NC(=O)[C@@H]2CSSC[C@H](NC(=O)[C@H](C(C)C)NC(=O)[C@H](CCCNC(=N)N)NC1=O)C(=O)N[C@@H](Cc1c[nH]cn1)C(=O)N[C@@H](CCCNC(=N)N)C(=O)N[C@@H](CCCNC(=N)N)C(=O)N[C@H](C(=O)N[C@@H](CC(N)=O)C(=O)O)CSSC[C@H](NC(=O)[C@H](Cc1ccccc1)NC(=O)CN)C(=O)N[C@@H](Cc1c[nH]c3ccccc13)C(=O)N[C@@H](CC(N)=O)C(=O)N[C@@H](C(C)C)C(=O)N2` [compound 233] (H-GFCWNVCVYRQGVRVCHRRCN-OH; disulfide 3-20, 7-16 (inferred); N-terminus and C-terminus assumed): 0.22; for `CC(C)[C@@H]1NC(=O)CNC(=O)[C@H](CC(N)=O)NC(=O)[C@H](CCCNC(=N)N)NC(=O)[C@H](Cc2ccc(O)cc2)NC(=O)[C@H](C(C)C)NC(=O)[C@@H]2CSSC[C@H](NC(=O)[C@H](C(C)C)NC(=O)[C@H](CCCNC(=N)N)NC1=O)C(=O)N[C@@H](CO)C(=O)N[C@@H](CCCNC(=N)N)C(=O)N[C@@H](CCCNC(=N)N)C(=O)N[C@H](C(=O)N[C@@H](CC(N)=O)C(=O)O)CSSC[C@H](NC(=O)[C@H](Cc1ccccc1)NC(=O)CN)C(=O)N[C@@H](Cc1ccc(O)cc1)C(=O)N[C@@H](CCCNC(=N)N)C(=O)N[C@@H](C(C)C)C(=O)N2` [compound 211] (H-GFCYRVCVYRNGVRVCSRRCN-OH; disulfide 3-20, 7-16 (inferred); N-terminus and C-terminus assumed): 0.04. The same measure for `CC(C)[C@@H]1NC(=O)CNC(=O)[C@H](CC(N)=O)NC(=O)[C@H](CCCNC(=N)N)NC(=O)[C@H](Cc2ccc(O)cc2)NC(=O)[C@H](Cc2c[nH]cn2)NC(=O)[C@@H]2CSSC[C@H](NC(=O)[C@H](C(C)C)NC(=O)[C@H](CCCNC(=N)N)NC1=O)C(=O)N[C@@H](Cc1ccc(O)cc1)C(=O)N[C@@H](CCCNC(=N)N)C(=O)N[C@@H](CCCNC(=N)N)C(=O)N[C@H](C(=O)N[C@@H](CC(N)=O)C(=O)O)CSSC[C@H](NC(=O)[C@H](Cc1ccccc1)NC(=O)CN)C(=O)N[C@@H](Cc1c[nH]c3ccccc13)C(=O)N[C@@H](Cc1ccc(O)cc1)C(=O)N[C@@H](C(C)C)C(=O)N2` [compound 23] (H-GFCWYVCHYRNGVRVCYRRCN-OH; disulfide 3-20, 7-16 (inferred); N-terminus and C-terminus assumed): 0.02. Under `CC(C)[C@@H]1NC(=O)[C@@H]2CSSC[C@H](NC(=O)[C@H](CO)NC(=O)[C@H](CCCNC(=N)N)NC(=O)[C@H](C)NC(=O)CNC(=O)[C@H](CC(N)=O)NC(=O)[C@H](CCCNC(=N)N)NC(=O)[C@H](Cc3ccc(O)cc3)NC1=O)C(=O)N[C@@H](Cc1ccc(O)cc1)C(=O)N[C@@H](CCCNC(=N)N)C(=O)N[C@@H](CCCNC(=N)N)C(=O)N[C@H](C(=O)N[C@@H](CC(N)=O)C(=O)O)CSSC[C@H](NC(=O)[C@H](Cc1ccccc1)NC(=O)CN)C(=O)N[C@@H](Cc1c[nH]c3ccccc13)C(=O)N[C@@H](Cc1c[nH]cn1)C(=O)N[C@@H](C(C)C)C(=O)N2` [compound 213] (H-GFCWHVCVYRNGARSCYRRCN-OH; disulfide 3-20, 7-16 (inferred); N-terminus and C-terminus assumed) stands 0.05. For the molecule `CC(C)[C@@H]1NC(=O)[C@H](CCCCN)NC(=O)[C@H](Cc2c[nH]c3ccccc23)NC(=O)[C@@H](NC(=O)[C@H](Cc2ccccc2)NC(=O)CN)CSSC[C@@H](C(=O)N[C@@H](CC(N)=O)C(=O)O)NC(=O)[C@H](CCCNC(=N)N)NC(=O)[C@H](CCCNC(=N)N)NC(=O)[C@H](Cc2ccc(O)cc2)NC(=O)[C@@H]2CSSC[C@H](NC1=O)C(=O)N[C@@H](C)C(=O)N[C@@H](CCCNC(=N)N)C(=O)N[C@@H](CCCNC(=N)N)C(=O)N[C@@H](CC(N)=O)C(=O)NCC(=O)N[C@@H](C)C(=O)N[C@@H](CCCNC(=N)N)C(=O)N[C@@H](CO)C(=O)N2` [compound 504] (H-GFCWKVCARRNGARSCYRRCN-OH; disulfide 3-20, 7-16 (inferred); N-terminus and C-terminus assumed), the fraction unbound is 0.05. The same measure for `CC(C)C[C@@H]1NC(=O)[C@H](CC(N)=O)NC(=O)[C@H](Cc2c[nH]c3ccccc23)NC(=O)[C@@H](NC(=O)[C@H](Cc2ccccc2)NC(=O)CN)CSSC[C@@H](C(=O)N[C@@H](CC(N)=O)C(=O)O)NC(=O)[C@H](CCCNC(=N)N)NC(=O)[C@H](CCCNC(=N)N)NC(=O)[C@H](Cc2c[nH]cn2)NC(=O)[C@@H]2CSSC[C@H](NC1=O)C(=O)N[C@@H](C(C)C)C(=O)N[C@@H](Cc1ccc(O)cc1)C(=O)N[C@@H](CCCNC(=N)N)C(=O)N[C@@H](CC(N)=O)C(=O)NCC(=O)N[C@@H](C(C)C)C(=O)N[C@@H](CCCNC(=N)N)C(=O)N[C@@H](C(C)C)C(=O)N2` [compound 263] (H-GFCWNLCVYRNGVRVCHRRCN-OH; disulfide 3-20, 7-16 (inferred); N-terminus and C-terminus assumed): 0.2; for `CC(C)[C@@H]1NC(=O)CNC(=O)[C@H](CC(N)=O)NC(=O)[C@H](CCCNC(=N)N)NC(=O)[C@H](CCCNC(=N)N)NC(=O)[C@H](C(C)C)NC(=O)[C@@H]2CSSC[C@H](NC(=O)[C@H](C(C)C)NC(=O)[C@H](CCCNC(=N)N)NC1=O)C(=O)N[C@@H](Cc1ccc(O)cc1)C(=O)N[C@@H](CCCNC(=N)N)C(=O)N[C@@H](CCCNC(=N)N)C(=O)N[C@H](C(=O)N[C@@H](CC(N)=O)C(=O)O)CSSC[C@H](NC(=O)[C@H](Cc1ccccc1)NC(=O)CN)C(=O)NCC(=O)N[C@@H](CCCNC(=N)N)C(=O)N[C@@H](C(C)C)C(=O)N2` [compound 172] (H-GFCGRVCVRRNGVRVCYRRCN-OH; disulfide 3-20, 7-16 (inferred); N-terminus and C-terminus assumed): 0.12. The same measure for `CC(C)[C@@H]1NC(=O)CNC(=O)[C@H](CC(N)=O)NC(=O)[C@H](CCCNC(=N)N)NC(=O)[C@H](Cc2ccc(O)cc2)NC(=O)[C@H](C)NC(=O)[C@@H]2CSSC[C@H](NC(=O)[C@H](C)NC(=O)[C@H](CCCNC(=N)N)NC1=O)C(=O)N[C@@H](Cc1ccc(O)cc1)C(=O)N[C@@H](CCCNC(=N)N)C(=O)N[C@@H](CCCNC(=N)N)C(=O)N[C@H](C(=O)N[C@@H](CC(N)=O)C(=O)O)CSSC[C@H](NC(=O)[C@H](Cc1ccccc1)NC(=O)CN)C(=O)N[C@@H](Cc1c[nH]c3ccccc13)C(=O)N[C@@H](CCCNC(=N)N)C(=O)N[C@@H](C)C(=O)N2` [compound 418] (H-GFCWRACAYRNGVRACYRRCN-OH; disulfide 3-20, 7-16 (inferred); N-terminus and C-terminus assumed): 0.08.

As a reminder, the fraction unbound is free concentration divided by total concentration.

(Values after patent US20160158317A1, “Antimicrobial Peptide Variants and Polynucleotides Encoding Same” (Adenium Biotech A/S, priority 2010, published 2016).)
